The first experiment deals with peripheral blood mononuclear cells (PBMCs). Description: IFN-γ ELISPOT assay (ex vivo) with subject PBMCs. It is filed as cell-based, human. The following applies: Example 3 subject PBMCs; compared to the HTAPP without DACP. On the procedure: IFNγ ELISpot analysis (for protocol see A. Lalvani, R. Brookes, S. Hambleton, W. J. Britton, A. V. S. Hill, A. J. McMichael, J Exp Med 1997; 186 (6): 859-865) was performed ex vivo (without further in vitro culturing for expansion) using PBMCs depleted of CD4+ and enriched for CD8+ T cells (CD8+ effectors), or depleted of CD8+ and enriched for CD4+ T cells (CD4+ effectors). Tests were performed in duplicate and with a positive and negative control, Multiscreen filter plates (Merck Millipore) pre-coated with IFNγ-specific antibodies (ELISpotPro kit, Mabtech). 267.000 Cells were used per plate. Plates were scanned using an AID Classic Robot ELISPOT Reader and analyzed by AID ELISPOT 7.0 software (AID Autoimmun Diagnostika). Antigen Peptides (except negative and positive control group) were done in duplicates, spot counts were taken as mean values of each duplicate.
The immunogenicity of each of the six peptides was analyzed by IFN-γ secretion by subject peripheral blood mononuclear cells (PBMCs) using ELIspot assay. […]
The immunogenicity of each peptide was assessed in peripheral blood mononuclear cells (PBMCs) from patients and using the IFN-γ-ELISPOT assay. ELISPOT results were considered positive if the number of spots was at least 2-fold higher than the negative control (medium) and at least 50 spots were detected. […] We also tested the effect of delivery aiding peptides (DACP-1) and peptide extension by overlapping tandemization and tandemization on the immunogenicity of the epitopes.
On to “LQEFRRFQDPGRIVAIVRQIKIWFQNRRMKWKK [SEQ-ID-No.: 20]”, for which the “response rate in ELIspot on addition of a DACP” value is listed as “increase in the response rate”.

For “KLVVVGAVGVGKSALTIRQIKIWFQNRRMKWKK [SEQ-ID-No.: 18]”, the “response rate in ELIspot on addition of a DACP” value is recorded as “increase in the response rate”.

Still in this experiment, the particulars now being: Table 1, HTAPPs; response in ELISPOT experiments.
On to “9 (LPVMLLIVARPVKLAAFPTSLSD) [compound 9]”, for which the “Elispot [nspots/pM]” value is listed as 289,5 nspots/pM.

For “8 (KKIRKPRTIYSSLQLQAAAYGIYDALFDIESKVDPSK) [compound 8]”, the “Elispot [nspots/pM]” value was 351,5 nspots/pM.

Take 4 (ETNFKSLFHDLFQKVEE) [compound 4]: the “Elispot [nspots/pM]” value is 233,5 nspots/pM.

With “13 (LSKNLVAQISALALQLAAYGNSITGIISSVLGHIS) [compound 13]”, the “Elispot [nspots/pM]” value turned out to be 205 nspots/pM.

In the case of 11 (SPLTGGNMAF) [compound 11], the “Elispot [nspots/pM]” value is 145,5 nspots/pM.

Consider “14 (SPRQCSSWTLAAYKLAAFPTSL) [compound 14]”, for which the “Elispot [nspots/pM]” value is listed as 137,5 nspots/pM.

Consider “17 (QSYPGSASLAAYSGMPRISKL) [compound 17]”, for which the “Elispot [nspots/pM]” value is on record as 202,5 nspots/pM.

Consider 3 (LQEFRRFQDPGRIVAIV) [compound 3], for which the “Elispot [nspots/pM]” value is 246,0 nspots/pM.

The same experiment, now with this note: Table 2, HTAPP-DACP; response in ELISPOT experiments.
In the case of “26 (IPDEYGNTALHYAIYNEDKLMRQIKIWFQNRRMKWKK) [compound 26]”, the “Elispot [nspots/pM]” value was 347,5 nspots/pM.

Take “23 (MLFSNITPKAAYSPLTGGNMAFRQIKIWFQNRRMKWKK) [compound 23]”: the “Elispot [nspots/pM]” value is listed as 285,0 nspots/pM.

As for “20 (LQEFRRFQDPGRIVAIVRQIKIWFQNRRMKWKK) [compound 20]”, the “Elispot [nspots/pM]” value is listed as 500,0 nspots/pM.

As for “29 (HRCATITHLLAAYYLVLNFNKKRQIKIWFQNRRMKWKK) [compound 29]”, the “Elispot [nspots/pM]” value is recorded as 342,5 nspots/pM.

Take “25 (RQRLALEAEKAAYEERGAAEALSVVRQIKIWFQNRRMKWKK) [compound 25]”: the “Elispot [nspots/pM]” value is on record as 317,5 nspots/pM.

Take “22 (IKPRILGFDTPHYWLCRQIKIWFQNRRMKWKK) [compound 22]”: the “Elispot [nspots/pM]” value is 477,0 nspots/pM.

Take “18 (KLVVVGAVGVGKSALTIRQIKIWFQNRRMKWKK) [compound 18]”: the “Elispot [nspots/pM]” value is recorded as 447,5 nspots/pM.

With “31 (QSYPGSASLAAYSGMPRISKLRQIKIWFQNRRMKWK) [compound 31]”, the “Elispot [nspots/pM]” value is 415,0 nspots/pM.

Consider “28 (SPRQCSSWTLAAYKLAAFPTSLRQIKIWFQNRRMKWKK) [compound 28]”, for which the “Elispot [nspots/pM]” value is given as 320,0 nspots/pM.

Still in this experiment, the particulars now being: Table 4, HTAPP-DACP related to group therapy.
Turning to “46 (KLVVVGACGVGKSALTIQLIQNHRQIKIWFQNRRMKWKK) [compound 46]”, the “Elispot [nspots/pM]” value is given as 54,2 nspots/pM.

Take “41 (HTLYGHTSTVHCMHLHEKRVRQIKIWFQNRRMKWKK) [compound 41]”: the “Elispot [nspots/pM]” value was 39,2 nspots/pM.

In the case of “49 (LLDILDTAGHEEYSAMRDQRQIKIWFQNRRMKWKK) [compound 49]”, the “Elispot [nspots/pM]” value is on record as 161,7 nspots/pM.

For “40 (HTLYGHTSTVCCMHLHEKRVRQIKIWFQNRRMKWKK) [compound 40]”, the “Elispot [nspots/pM]” value is listed as 95,0 nspots/pM.

Regarding “45 (KIGDFGLATEKSRWSGSHQRQIKIWFQNRRMKWKK) [compound 45]”, the “Elispot [nspots/pM]” value is recorded as 55,0 nspots/pM.

On to “43 (IGHKVDAVFMKDGFFYFFHGTRQYRQIKIWFQNRRMKWKK) [compound 43]”, for which the “Elispot [nspots/pM]” value is 134,2 nspots/pM.

Regarding “50 (LLGRNSFEVCVCACPGRDRRQIKIWFQNRRMKWKK) [compound 50]”, the “Elispot [nspots/pM]” value is 256,7 nspots/pM.

As for “44 (KAISTRDPLSKITEQEKDFLWRQIKIWFQNRRMKWKK) [compound 44]”, the “Elispot [nspots/pM]” value is on record as 103,3 nspots/pM.

In the case of “35 (EYFMKQMNDARHGGWTTKMDRQIKIWFQNRRMKWKK) [compound 35]”, the “Elispot [nspots/pM]” value is 20,0 nspots/pM.

As to “51 (LLGRNSFEVHVCACPGRDRRQIKIWFQNRRMKWKK) [compound 51]”, the “Elispot [nspots/pM]” value is 264,2 nspots/pM.

Take “47 (KLVVVGADGVGKSALTIQLIQNHRQIKIWFQNRRMKWKK) [compound 47]”: the “Elispot [nspots/pM]” value was 120,0 nspots/pM.

“34 (DSTPPPGTRVLAMAIYKQSQRQIKIWFQNRRMKWKK) [compound 34]”: the “Elispot [nspots/pM]” value is on record as 35,8 nspots/pM.

For the substance “52 (LLGRNSFEVLVCACPGRDRRQIKIWFQNRRMKWKK) [compound 52]”, the “Elispot [nspots/pM]” value is listed as 275,0 nspots/pM.

Take “42 (ICLTSTVQLIMQLMPFGCLLRQIKIWFQNRRMKWKK) [compound 42]”: the “Elispot [nspots/pM]” value is 20,8 nspots/pM.

Staying with this experiment, now noted: Table 5, HTAPP-DACP related to group therapy.
For “58 (NSSCMGGMNWRPILTIITLRQIKIWFQNRRMKWKK) [compound 58]”, the “Elispot [nspots/pM]” value is reported as 228,3 nspots/pM.

Turning to “59 (PSDQDLLRCCVLTSGIFETRQIKIWFQNRRMKWKK) [compound 59]”, the “Elispot [nspots/pM]” value was 100,8 nspots/pM.

For “61 (QHVKITDFGRAKLLGAEEKRQIKIWFQNRRMKWKK) [compound 61]”, the “Elispot [nspots/pM]” value is on record as 76,7 nspots/pM.

On to “66 (TIHYNYMCNSSCMGSMNRRPILTIRQIKIWFQNRRMKWKK) [compound 66]”, for which the “Elispot [nspots/pM]” value is 13,3 nspots/pM.

Regarding “62 (RVCACPGRDWRTEEENLRKRQIKIWFQNRRMKWKK) [compound 62]”, the “Elispot [nspots/pM]” value is given as 279,2 nspots/pM.

“63 (SQHMTEVVRHCPHHERCSDRQIKIWFQNRRMKWKK) [compound 63]”: the “Elispot [nspots/pM]” value is 88,3 nspots/pM.

“68 (YKLVVVGAGDVGKSALTIQLIQNHFVDRQIKIWFQNRRMKWKK) [compound 68]”: the “Elispot [nspots/pM]” value was 154,2 nspots/pM.

Regarding “67 (YGIPFIETSTKTRQRVEDARQIKIWFQNRRMKWKK) [compound 67]”, the “Elispot [nspots/pM]” value is 248,3 nspots/pM.

On to “54 (MLPQIPFLLLVSLNLVHGVFRQIKIWFQNRRMKWKK) [compound 54]”, for which the “Elispot [nspots/pM]” value is given as 246,7 nspots/pM.

The same experiment, now with this note: Table 6, further HTAPPs, HTAPP-DACPs and reference sequences.
As to 76 (PQELWHFLTQNLSLPN) [compound 76], the “Elispot [nspots/pM]” value is 470,5 nspots/pM.

As for “82 (LEKLYLYFNKISKIENLEKLIKRQIKIWFQNRRMKWKK) [compound 82]”, the “Elispot [nspots/pM]” value is given as 305,0 nspots/pM.

With “83 (QSYPGSASLAAYSGMPRISKLRQIKIWFQNRRMKWKK) [compound 83]”, the “Elispot [nspots/pM]” value was 367,5 nspots/pM.

Take “81 (LTPKKLQCVDLHVISNDRQIKIWFQNRRMKWKK) [compound 81]”: the “Elispot [nspots/pM]” value is recorded as 272,5 nspots/pM.

For the substance 74 (SPITSVLSADLFPKA) [compound 74], the “Elispot [nspots/pM]” value is 128,5 nspots/pM.

For the substance “70 (ESGCEERGAAMIQTVDPAAHRQIKIWFQNRRMKWKK) [compound 70]”, the “Elispot [nspots/pM]” value is 153,5 nspots/pM.

As to “80 (NFMLNQNVMLSVKGITKNVHTRQIKIWFQNRRMKWKK) [compound 80]”, the “Elispot [nspots/pM]” value is on record as 232,5 nspots/pM.

For the substance “71 (QRQLNTALPQPFREAPAYSNRQIKIWFQNRRMKWKK) [compound 71]”, the “Elispot [nspots/pM]” value is given as 270,5 nspots/pM.

On to “84 (PPSNATAETQPIPQKAAYLEAIFLRDWDSLYSHDLDTSADS) [compound 84]”, for which the “Elispot [nspots/pM]” value is listed as 197,5 nspots/pM.

With 69 (VAFLGCPGFAGVLQT) [compound 69], the “Elispot [nspots/pM]” value is 149,0 nspots/pM.

As to 78 (GIYDALFDIESKVDPSK) [compound 78], the “Elispot [nspots/pM]” value is recorded as 134,5 nspots/pM.

As to 75 (SAANIRALNVPPSLA) [compound 75], the “Elispot [nspots/pM]” value was 196,0 nspots/pM.

The experiment is the same for the next values; noted with them: tandem peptide in relation to the more immunogenic single HTAP (SEQ-ID-No.: 77 / 78).
Consider “KKIRKPRTIYSSLQLQAAAYGIYDALFDIESKVDPSK [SEQ-ID-No.: 8]”, for which the “increase in Elispot count” value is given as “more than 237%”.

These data come from patent US20250255945A1, “CLICK CHEMISTRY HLA POLYPEPTIDES” (IMMUNEO Therapeutics GmbH, priority 2024, published 2025).
